Earlier results, collected in patent US10213490B2, “Compositions for providing agents that degrade in water” (VIRUN, INC., priority 2015, dated 2019).

glutathione remaining (stored in water at pH 2 and 7, after 7 days): approximately 65% | glutathione degraded (stored in water, pH 3 to 6, 7 days): 20%
SMILES: N[C@@H](CCC(=O)N[C@@H](CS)C(=O)NCC(=O)O)C(=O)O [glutathione]
